Conditions: from C=CCCCCCCCCC(=O)N[C@@H](CCOc1ccccc1)C(=O)NCC(=O)N1[C@H]2C[C@@]2(COCCCC=C)C[C@H]1C(=O)OCc1ccccc1; rcm bond; Grubbs 1st catalyst; DCM; 14.0 mM; 28.0 °C; 16.0 h

In the case of `O=C1CCCCCCCC/C=C/CCCOC[C@@]23C[C@@H]2N(C(=O)CNC(=O)[C@H](CCOc2ccccc2)N1)[C@H](C(=O)OCc1ccccc1)C3`, the ring closure, yield of all isomers is reported as 43.4%.
